This assay relates to Streptococcal cell wall (SCW)-induced arthritis in female Lewis rats. The assay can be described thus: Rat streptococcal cell wall (SCW)-induced arthritis: ankle swelling and von Frey mechanical threshold. The class given is in vivo. The settings on record: P2X7 antagonist 1 30 mg/kg oral bid, Etanercept 0.5 mg/kg s.c.; for % reduction of AUC (compared to arthritic vehicle control), Ankle swelling: AUC from day -1 to day 6 post-induction; for % reduction of AUC (compared to arthritic vehicle control), Von Frey threshold: von Frey filaments on days -1, 1, 3, 5. From the text:
Assessment of Anti-Inflammatory Activity of TNFα Inhibitor/P2X7 Anatagonist Combinations in Rat Streptococcal Cell Wall-Induced Arthritis. ^1 1. Experimental procedure based on that described by Carlson R P, Jacobsen P B; ‘Comparison of adjuvant and streptococcal cell wall-induced arthritis in the rat’ in Morgan D W, Marshall L A, editors; In Vivo Models of Inflammation. Basel: Birkhauser Verlag; 1999.
Streptococcal cell wall (SCW)-induced arthritis was induced in the left ankle of female Lewis rats. Animals were sensitised by intra-articular injection of 5 μg (in 20 μL) SCW (Lee Laboratories) into the left ankle. Ankle swelling was assessed 3 days after injection and non-responders (animals with no apparent ankle swelling) were rejected. Responding animals were randomly allocated to the test groups.
Arthritis was induced 21 days after sensitisation by intravenous (iv) injection of SCW (100 μg in 500 μL saline). Animals were monitored and assessed on a daily basis through to termination 6 days after induction. The rats were housed on sawdust and provided with food and water ad libitum.
In this example the P2X7 antagonist 1, was orally dosed at 30 mg/kg (4 mL/kg, bid). The compound was dosed as a suspension in 1% (w/v) methylcellulose in deionised water and was freshly prepared on a daily basis. Dosing commenced 1 day prior to induction of arthritis and continued through to termination on day 6 post-induction. Etanercept (0.5 mg/kg) was administered by subcutaneous injection (1 mL/kg) 1 day prior to induction of arthritis and then on days 1, 3 and 5 post-induction.
Ankle diameters were measured with vernier callipers on a daily basis from day −1. Mechanical thresholds were assessed using von Frey filaments on days −1, 1, 3 and 5. The filaments were applied in increasing weights to the ankle region on the footpad of both feet. The first filament to induce a withdrawal response was considered to be the threshold.
Effects on ankle swelling and mechanical threshold were calculated on an area under the curve (AUC) basis, as the sum of the differences from individual day −1 values. The size and direction of the interaction was calculated and data analysis performed by ANOVA followed by Dunnett's test on the AUC data (SAS version 8.01).

As to Etanercept, the “% reduction of AUC (compared to arthritic vehicle control), Ankle swelling” value came out at 44.0 ± 4.7 % and the “% reduction of AUC (compared to arthritic vehicle control), Von Frey threshold” value was found to be 7.4 ± 6.8%.

Consider `Cc1ccc(C(=O)N2CC3CNCC(C2)O3)cc1NC(=O)CC12CC3CC(CC(C3)C1)C2.Cl` [P2X7 antagonist 1, N-[2-Methyl-5-(9-oxa-3,7-diazabicyclo[3.3.1]non-3-ylcarbonyl)phenyl]-tricyclo[3.3.1.1^3,7]decane-1-acetamide, hydrochloride], for which the “% reduction of AUC (compared to arthritic vehicle control), Ankle swelling” value is listed as 28.5 ± 13.5% and the “% reduction of AUC (compared to arthritic vehicle control), Von Frey threshold” value was determined as 21.1 ± 10.9%.
